“And” between values parts separate entries of the source, which are not always exact repeats. Identical values can stand only once. Toxic doses and inconclusive results are not listed. Cut-off read from the data, not from the text of the source: active = T/C of 150% or more; inactive = T/C below 125%.
System: L1210 leukemia ip in BDF1 mice, survival T/C
Assay: NCI In Vivo Anticancer Drug Screen. Data for tumor model L1210 Leukemia (intraperitoneal) in B6D2F1 (BDF1) mice
Details: endpoint: mean survival time, higher = longer survival
Outline: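 Tumor cells were implanted, animals were treated, and survival was followed. The result divides the treated measurement by the vehicle-control measurement.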

[1] = dose: 100.0 mg/kg/injection, schedule: Q04DX002 (ip), vehicle: Klucel (hydroxypropylcellulose) (HPC)
[2] = dose: 200.0 mg/kg/injection, schedule: Q04DX002 (ip), vehicle: Klucel (hydroxypropylcellulose) (HPC)
[3] = dose: 100.0 mg/kg/injection, schedule: Q04DX003 (ip), vehicle: Klucel (hydroxypropylcellulose) (HPC)
[4] = dose: 200.0 mg/kg/injection, schedule: Q04DX003 (ip), vehicle: Klucel (hydroxypropylcellulose) (HPC)
[5] = dose: 400.0 mg/kg/injection, schedule: Q04DX003 (ip), vehicle: Klucel (hydroxypropylcellulose) (HPC)
[6] = dose: 400.0 mg/kg/injection, schedule: Q04DX002 (ip), vehicle: Klucel (hydroxypropylcellulose) (HPC)
[7] = dose: 100.0 mg/kg/injection, schedule: Q04DX003 (ip), vehicle: saline
[8] = dose: 200.0 mg/kg/injection, schedule: Q04DX003 (ip), vehicle: saline
[9] = dose: 100.0 mg/kg/injection, schedule: Q01DX009 (ip), vehicle: Klucel (hydroxypropylcellulose) (HPC)
[10] = dose: 200.0 mg/kg/injection, schedule: Q01DX009 (ip), vehicle: Klucel (hydroxypropylcellulose) (HPC)
[11] = dose: 400.0 mg/kg/injection, schedule: Q01DX009 (ip), vehicle: Klucel (hydroxypropylcellulose) (HPC)
[12] = dose: 100.0 mg/kg/injection, schedule: Q01DX001 (ip), vehicle: saline
[13] = dose: 200.0 mg/kg/injection, schedule: Q01DX001 (ip), vehicle: saline
[14] = dose: 400.0 mg/kg/injection, schedule: Q01DX001 (ip), vehicle: saline

Measured: T/C

Nc1cc2c(cc1Br)[nH]c(=O)c1ccccc12
inactive: dose: 100.0 mg/kg/injection, schedule: Q01DX001 (ip), vehicle: carboxymethylcellulose (CMC) 98 % of control | dose: 200.0 mg/kg/injection, schedule: Q01DX001 (ip), vehicle: carboxymethylcellulose (CMC) 96 % of control | dose: 400.0 mg/kg/injection, schedule: Q01DX001 (ip), vehicle: carboxymethylcellulose (CMC) 93 % of control

CCOC(=N)Cc1cc(OC)c(OC)c(OC)c1
inactive: dose: 100.0 mg/kg/injection, schedule: Q04DX003 (ip), vehicle: saline sonified 100 % of control | dose: 200.0 mg/kg/injection, schedule: Q04DX003 (ip), vehicle: saline sonified 98 % of control | dose: 400.0 mg/kg/injection, schedule: Q04DX003 (ip), vehicle: saline sonified 102 % of control

Nc1cccc(CCCCc2ccccc2)c1
inactive: dose: 100.0 mg/kg/injection, schedule: Q01DX001 (ip), vehicle: saline with Tween-80 102 % of control | dose: 200.0 mg/kg/injection, schedule: Q01DX001 (ip), vehicle: saline with Tween-80 100 % of control

CC(C)(CCl)c1ccc(C(C)(C)CCl)cc1
inactive: dose: 50.0 mg/kg/injection, schedule: Q04DX002 (ip), vehicle: Klucel (hydroxypropylcellulose) (HPC) 104 % of control | [1] 93 % of control | [2] 93 % of control

COc1ccc(C2=CC(=O)C(c3ccc(OC)cc3)=CC2=O)cc1
inactive: dose: 20.0 mg/kg/injection, schedule: Q01DX009 (ip), vehicle: gum acacia 88 % of control | dose: 20.0 mg/kg/injection, schedule: Q04DX003 (ip), vehicle: gum acacia 86 % of control | dose: 40.0 mg/kg/injection, schedule: Q04DX003 (ip), vehicle: gum acacia 92 % of control | dose: 80.0 mg/kg/injection, schedule: Q01DX009 (ip), vehicle: gum acacia 97 % of control | dose: 80.0 mg/kg/injection, schedule: Q04DX003 (ip), vehicle: gum acacia 91 % of control

O=c1[nH]c2ccccc2nc1C(Br)Br
inactive: [3] 97 % of control | [4] 105 % of control | [5] 97 % of control

O=C(COc1cc(Cl)c(Cl)cc1Cl)Nc1ccccc1Br
inactive: [1] 95 % of control | [2] 98 % of control | [6] 106 % of control

CCc1c(O)c2ccc3ccccc3c2oc1=O
inactive: [7] 97 % of control | [8] 94 % of control | dose: 400.0 mg/kg/injection, schedule: Q04DX003 (ip), vehicle: saline 94 % of control

COc1ccccc1NC(=O)c1ccc(Cl)cc1Cl
inactive: [9] 98 % of control | [3] 100 % of control | [10] 93 % of control | [4] 96 % of control | [11] 93 % of control | [5] 97 % of control

N/C(=N\O)c1c(Br)n(C2OC(CO)C(O)C2O)c2ncnc(N)c12 (stereo unspecified)
inactive: [12] 98 % of control | [13] 97 % of control | [14] 106 % of control

NC(=O)N/N=C/c1ccccc1
inactive: [9] 96 % of control | [1] 89 % of control | [10] 96 % of control | [2] 100 % of control | [11] 111 % of control | [6] 104 % of control

Cc1cc(Cc2cc(C)c(O)c(C(C)(C)C)c2)cc(C(C)(C)C)c1O
inactive: dose: 50.0 mg/kg/injection, schedule: Q04DX002 (ip), vehicle: other 93 % of control | dose: 100.0 mg/kg/injection, schedule: Q04DX002 (ip), vehicle: other 87 % of control | dose: 200.0 mg/kg/injection, schedule: Q04DX002 (ip), vehicle: other 90 % of control

COc1ccc2c(O)c(Oc3ccccc3)c(=O)oc2c1
inactive: [7] 87 % of control | [8] 97 % of control

COC(=O)CC1(CC(=O)OC)C(=O)N(c2ccccc2)c2ccccc21
inactive: dose: 100.0 mg/kg/injection, schedule: Q01DX001 (ip), vehicle: Klucel (hydroxypropylcellulose) (HPC) 90 % of control | dose: 200.0 mg/kg/injection, schedule: Q01DX001 (ip), vehicle: Klucel (hydroxypropylcellulose) (HPC) 93 % of control | dose: 400.0 mg/kg/injection, schedule: Q01DX001 (ip), vehicle: Klucel (hydroxypropylcellulose) (HPC) 93 % of control

O=[N+]([O-])c1cc(Cl)c(Cl)cc1NS(=O)(=O)c1ccccc1
inactive: dose: 25.0 mg/kg/injection, schedule: Q01DX Z (ip), vehicle: carboxymethylcellulose (CMC) 101 % of control | dose: 50.0 mg/kg/injection, schedule: Q01DX Z (ip), vehicle: carboxymethylcellulose (CMC) 98 % of control | dose: 100.0 mg/kg/injection, schedule: Q01DX Z (ip), vehicle: carboxymethylcellulose (CMC) 101 % of control | dose: 200.0 mg/kg/injection, schedule: Q01DX Z (ip), vehicle: carboxymethylcellulose (CMC) 96 % of control | dose: 275.0 mg/kg/injection, schedule: Q01DX015 (ip), vehicle: carboxymethylcellulose (CMC) 90 % of control | dose: 350.0 mg/kg/injection, schedule: Q01DX015 (ip), vehicle: carboxymethylcellulose (CMC) 98 % of control | dose: 425.0 mg/kg/injection, schedule: Q01DX015 (ip), vehicle: carboxymethylcellulose (CMC) 111 % of control | dose: 700.0 mg/kg/injection, schedule: Q01DX015 (ip), vehicle: carboxymethylcellulose (CMC) 86 % of control

O=S(=O)(Nc1ccccn1)c1ccc(N=Nc2ccc(O)c3ncccc23)cc1
inactive: [12] 103 % of control | [13] 105 % of control | [14] 103 % of control

c1cc(B2OCCNCCO2)ccc1B1OCCNCCO1
inactive: [3] 103 % of control | [4] 98 % of control | [5] 104 % of control

CCOC(=O)C(=O)Cc1sccc1[N+](=O)[O-]
inactive: [9] 93 % of control | [3] 94 % of control | [10] 94 % of control | [4] 92 % of control | [11] 100 % of control | [5] 100 % of control

O=[As](O)(O)CCc1ccccc1
inactive: dose: 12.5 mg/kg/injection, schedule: Q04DX003 (ip), vehicle: Klucel (hydroxypropylcellulose) (HPC) 101 % of control | dose: 25.0 mg/kg/injection, schedule: Q04DX003 (ip), vehicle: Klucel (hydroxypropylcellulose) (HPC) 108 % of control

C[n+]1ccccc1/C=N/O
inactive: dose: 25.0 mg/kg/injection, schedule: Q01DX009 (ip), vehicle: saline 105 % of control | dose: 33.0 mg/kg/injection, schedule: Q01DX009 (ip), vehicle: saline 100 % of control | dose: 50.0 mg/kg/injection, schedule: Q01DX009 (ip), vehicle: saline 98 % of control | dose: 75.0 mg/kg/injection, schedule: Q01DX009 (ip), vehicle: Klucel (hydroxypropylcellulose) (HPC) 102 % of control | dose: 75.0 mg/kg/injection, schedule: Q01DX009 (ip), vehicle: saline 98 % of control | dose: 75.0 mg/kg/injection, schedule: Q04DX003 (ip), vehicle: saline 91 % of control | dose: 100.0 mg/kg/injection, schedule: Q01DX009 (ip), vehicle: saline 100 % of control and 103 % of control | [7] 103 % of control | dose: 150.0 mg/kg/injection, schedule: Q01DX009 (ip), vehicle: Klucel (hydroxypropylcellulose) (HPC) 108 % of control | dose: 150.0 mg/kg/injection, schedule: Q04DX003 (ip), vehicle: saline 109 % of control | dose: 200.0 mg/kg/injection, schedule: Q01DX009 (ip), vehicle: saline 97 % of control | [8] 94 % of control | dose: 300.0 mg/kg/injection, schedule: Q04DX003 (ip), vehicle: saline 98 % of control

Cc1nc2ccccc2nc1CBr
inactive: dose: 3.2 mg/kg/injection, schedule: Q01DX009 (ip), vehicle: Klucel (hydroxypropylcellulose) (HPC) 103 % of control | dose: 6.3 mg/kg/injection, schedule: Q01DX009 (ip), vehicle: Klucel (hydroxypropylcellulose) (HPC) 100 % of control | dose: 12.5 mg/kg/injection, schedule: Q01DX009 (ip), vehicle: Klucel (hydroxypropylcellulose) (HPC) 105 % of control | dose: 12.5 mg/kg/injection, schedule: Q04DX003 (ip), vehicle: saline with Tween-80 98 % of control | dose: 25.0 mg/kg/injection, schedule: Q01DX009 (ip), vehicle: Klucel (hydroxypropylcellulose) (HPC) 97 % of control | dose: 25.0 mg/kg/injection, schedule: Q04DX003 (ip), vehicle: saline with Tween-80 89 % of control | dose: 50.0 mg/kg/injection, schedule: Q01DX009 (ip), vehicle: Klucel (hydroxypropylcellulose) (HPC) 102 % of control | dose: 50.0 mg/kg/injection, schedule: Q04DX003 (ip), vehicle: saline with Tween-80 98 % of control

— PubChem BioAssay AID248 (DTP/NCI, 2004)
